From patent US7235263B2, “Processes for controlling microbial organic compound production” (Kimberly-Clark Worldwide, Inc., priority 2001, dated 2007)

How the values were obtained:
[1] = tested on: Proteus mirabilis (ATCC 29906); assay: Ammonia production by facultatively grown Proteus mirabilis in urine:TSB (ammonia probe); type: cell-based; details: for % Reduction of Ammonia: vs urine:TSB:facultative without mannitol peroxide
Procedure: Proteus mirabilis was taken from a TSB culture (described in (1) above) and grown under various conditions for use in the Examples. For bacteria to be grown under aerobic conditions, 50 microliters of Proteus mirabilis was taken from a TSB culture prepared as described above and inoculated into a 50 mL volume of a freshly made 9:1 (by volume) pooled adult female urine:TSB mixture into a 250 mL shake flask. This mixture was rotated at 250 rpm at 37° C. overnight to grow the bacteria. For bacteria to be grown under facultative conditions, 10 microliters of Proteus mirabilis was taken from a TSB culture prepared as described above and inoculated into a 10 mL volume of a freshly made 9:1 (by volume) pooled adult female urine:TSB mixture into a 15 mL tube. The tube was loosely fitted with a screw cap, and held stationary at 37° C. overnight to grow the bacteria. For bacteria to be grown under anaerobic conditions, 10 microliters of Proteus mirabilis was taken from a TSB culture prepared as described above and inoculated into a 10 mL volume of a freshly made 9:1 (by volume) pooled adult female urine:TSB mixture into a 15 mL conical tube. The tube was purged with nitrogen and a screw cap tightly closed, and then was held stationary overnight at 37° C. to grow the bacteria.
Upon completion of the respective incubation periods of the samples, optical density measurements of each sample were taken as described above and ammonia production of the growth solutions was measured using an ammonia combination probe (Beckman, Fullerton, Calif.) by record mV using an Orion pH meter (Orion, Boston, Mass.). Orion ammonia standards (Orion) were used to calibrate the instrument.
In this Example, six different samples were prepared for analysis. The first sample comprised a urine:TSB mixture that was prepared in the same manner as that described in Example 1. […] The tube was loosely fitted with a screw cap, and held stationary at 37° C. overnight to grow the bacteria. […] The fifth sample comprising urine:TSB:Proteus mirabilis (facultatively grown) was prepared in the same manner as that described in Example 1.

[2] = tested on: interleukin-1 alpha (IL-1a); assay: IL-1a release by EPIOCULAR skin culture challenged with sample; type: cell-based, human; details: Table 5, 6 hours
Description: In order to evaluate the amount of skin irritation by various samples prepared in the Examples, a human skin culture was selected to model the response of the human epidermis to treated and untreated bacterial metabolized urine:TSB mixture. The tissue model selected was an EPIOCULAR Tissue Model (OCL-200 propagated without hydrocortisone), and was purchased from MatTek Corporation (Ashland, Mass.). This model consists of normal, human-derived epidermal keratinocytes, which have been cultured to form a stratified, squamous epithelium similar to that found in the cornea. The epidermal cells, which are cultured on specially prepared cell culture inserts using a serum free medium, differentiate to form a multi-layered structures which closely parallel the corneal epithelium. Experiments using this skin culture were conducted in six parallel wells. Each well contained one milliliter of pre-warmed media that was the same as the model skin culture media. The plates were then incubated in a 37° C., 5% carbon dioxide atmosphere for thirty minutes. […] The response of the skin culture to test the compositions/control and the insult solution is determined by measuring the amount of interleukin-1 alpha (IL-1a) and/or interleukin-8 (IL-8). IL-1a and IL-8 were quantified using an Interleukin-1 alpha or Interleukin-8 Quantikine Kit available from R&D Systems (Minneapolis, Minn.).

Proteus mirabilis = assay: Growth of aerobically cultivated Proteus mirabilis in urine:TSB, microtiter serial dilution, optical density; type: cell-based; details: for optical density (bacterial cell growth): 48 hours at 37° C., aerobic, listed as 7 Hr.
Procedure: Proteus mirabilis was cultured in TSB as described in Example 1 and transferred to a urine:TSB mixture (9:1) and incubated under aerobic conditions as described in Example 1. […] In a 96-well microtiter plate with a lid, 150 microliters of each 10% solution was introduced into the first and second columns of the wells. Using a multi-channel pipette, 150 microliters of urine:TSB mixture was introduced into each well except the first column. Beginning at the second column of wells, serial dilutions were made by removing 150 microliters from the second column and transferring it to the third column. The mixture was mixed by pipetting up and down three times. The serial dilutions continued across each column of the plate and, after column 11, 150 microliters was discarded leaving column 12 as the 0% solution. Each well was then inoculated with 1 microliter of Proteus mirabilis, except for the negative control rows. One to three drops of anti-fogging solution was place on the plate lids with a cotton applicator, and allowed to air dry. The mixtures were incubated for 48 hours at 37° C. under aerobic conditions. After incubation of the samples, each was analyzed for bacterial cell growth utilizing the optical density procedure as set forth in Example 1.

[3] = Table 4, 5% mannitol peroxide, facultative
[4] = Table 4, 10% mannitol peroxide, facultative
[5] = Table 7, 5% mannitol peroxide, facultative

Substance: mannitol peroxide
- Ammonia/Cell ([1]; Table 3, 5% (w/v) mannitol peroxide, facultative bacteria): 1.6 ppm/CFU E+8
- Ammonia Produced (n = 3) ([1]; Table 3, 5% (w/v) mannitol peroxide, urine:TSB, facultative bacteria): 34.5 ± 12.6 ppm
- Ammonia/Cell ([1]; Table 3, 10% mannitol peroxide, facultative bacteria): 0.01 ppm/CFU E+8
- Ammonia Produced (n = 3) ([1]; Table 3, 10% mannitol peroxide, urine:TSB, facultative bacteria): 13.9 ± 0.3 ppm
- Ammonia (n = 3) [1, 3]: 34.5 ± 12.6 ppm
- Ammonia/Cell [1, 3]: 1.6 ppm/CFU E+8
- % Reduction of Ammonia ([1]; Table 4, 5% mannitol peroxide): 53.6%
- Ammonia (n = 3) [1, 4]: 13.9 ± 0.3 ppm
- Ammonia/Cell [1, 4]: 0.01 ppm/CFU E+8
- % Reduction of Ammonia ([1]; Table 4, 10% mannitol peroxide): 98.5%
- Ammonia Produced (n = 3) [1, 5]: 434.5 ± 7.5 ppm
- Ammonia/Cell [1, 5]: 43.84 ppm/10E8CFU
- IL-1a ([2]; facultative Proteus mirabilis grown with 5% mannitol peroxide): 48.12 ± 8.93 pg/mL
- IL-1a ([2]; facultative Proteus mirabilis grown with 10% mannitol peroxide): 15.26 ± 12.80 pg/mL
- optical density (bacterial cell growth) (Proteus mirabilis; 0.0097% in urine:TSB): 0.98
- optical density (bacterial cell growth) (Proteus mirabilis; 0.0195% in urine:TSB): 0.98
- optical density (bacterial cell growth) (Proteus mirabilis; 0.0391% in urine:TSB): 0.95
- optical density (bacterial cell growth) (Proteus mirabilis; 0.0785% in urine:TSB): 0.98
- optical density (bacterial cell growth) (Proteus mirabilis; 0.156% in urine:TSB): 1.00
- optical density (bacterial cell growth) (Proteus mirabilis; 0.313% in urine:TSB): 0.96
- optical density (bacterial cell growth) (Proteus mirabilis; 0.625% in urine:TSB): 0.99
- optical density (bacterial cell growth) (Proteus mirabilis; 1.25% in urine:TSB): 0.98
- optical density (bacterial cell growth) (Proteus mirabilis; 2.5% in urine:TSB): 0.97
- optical density (bacterial cell growth) (Proteus mirabilis; 5% in urine:TSB): 0.90
- optical density (bacterial cell growth) (Proteus mirabilis; 10% in urine:TSB): 0.82
- effect on the growth of the bacteria (Proteus mirabilis; heated at least about 7 hours at about 97° C. during synthesis, even at elevated concentrations): little effect on the growth of the bacteria
